This is an account of results in paper doi:10.1101/2021.10.07.463234v2 (biorxiv, 2021).

Counter-ions that a name gives are not always drawn.

In general, %inhibition refers to the relative decrease from the control value, in per cent. A high value points to a response far below the control. The inhibition is the share of the control response that was lost under treatment.

The target of one test is SARS-CoV-2 Mac1 (Severe acute respiratory syndrome coronavirus 2, UniProt P0DTD1). As to the kind of experiment: biochemical. The settings on record: 100 µM; inhibitor.
Turning to `CC1(C)S[C@@H]2[C@H](NC(=O)Cc3ccccc3)C(=O)N2[C@H]1C(=O)O` [Benzylpenicillin potassium], the “%inhibition” value turned out to be 8.229%.

Turning to `CC(C)(C)NC(=O)N[C@H](C(=O)N1C[C@H]2[C@@H]([C@H]1C(=O)NC(CC1CCC1)C(=O)C(N)=O)C2(C)C)C(C)(C)C` (stereo partly shown) [Boceprevir], the “%inhibition” value was 2.103%. Regarding `C[C@@H](O)[C@H]1C(=O)N2C(C(=O)O)=C(S[C@@H]3CN[C@H](C(=O)N(C)C)C3)[C@H](C)[C@H]12` [Meropenem], the “%inhibition” value stood at 0%. The same measure, in the same setting: the result for `COC(=O)c1ccc2c(C(=Nc3ccc(N(C)C(=O)CN4CCN(C)CC4)cc3)c3ccccc3)c(O)[nH]c2c1` [Nintedanib (BIBF 1120)] reads 17.91%; that for `C/C(=C\C(=O)OCCCCCCCCC(=O)O)C[C@@H]1OC[C@H](C[C@@H]2O[C@H]2[C@@H](C)[C@H](C)O)[C@@H](O)[C@H]1O` [Mupirocin calcium], 3.887%; that for `CN1CCc2nc(C(=O)N[C@@H]3C[C@@H](C(=O)N(C)C)CC[C@@H]3NC(=O)C(=O)Nc3ccc(Cl)cn3)sc2C1` [Edoxaban tosylate Monohydrate], 20.23%.

Staying with this test, now noted: read-out: %inhibition.
`CN1CC(=O)N2[C@H](c3ccc4c(c3)OCO4)c3[nH]c4ccccc4c3C[C@@H]2C1=O` [Tadalafil]: the inhibition at 100 µM was 20.7%. In the case of `NC1=NCC2c3ccccc3Cc3ccccc3N12` (stereo not shown) [Epinastine HCl], the inhibition at 100 µM worked out at 4.62%. The same measure, in the same setting: as for `Cc1cc(O)cc(C)c1Cl` [Chloroxylenol], the figure is 0%; as for `COc1ccc(C(=O)CC(=O)c2ccc(C(C)(C)C)cc2)cc1` [Avobenzone], 26.5%; as for `CN(C)CCCOc1nn(Cc2ccccc2)c2ccccc12` [Benzydamine HCl], 4.5%. Regarding `C=CCNC1=C2C[C@@H](C)C[C@H](OC)[C@H](O)[C@@H](C)/C=C(\C)[C@H](OC(N)=O)[C@@H](OC)/C=C\C=C(/C)C(=O)NC(=CC1=O)C2=O` [Tanespimycin (17-AAG)], the inhibition at 100 µM came out at 3.81%. With `O=C(CCNNC(=O)c1ccncc1)NCc1ccccc1` [Nialamide], the inhibition at 100 µM is 25%. Turning to `O=c1ccc2ccc(OCCCCN3CCN(c4cccc5sccc45)CC3)cc2[nH]1` [Brexpiprazole], the inhibition at 100 µM amounted to 0%. On the same count and under the same terms, as for `COc1cc(NS(=O)(=O)c2ccc(N)cc2)nc(OC)n1` [Sulphadimethoxine], the figure is 0%; as for `Cc1ccc(NC(=O)C2(c3ccc4c(c3)OC(F)(F)O4)CC2)nc1-c1cccc(C(=O)O)c1` [VX-809 (Lumacaftor)], 0%; as for `CC(COc1ccccc1Cc1ccccc1)N1CCCCC1` (stereo not shown) [Benproperine phosphate], 0%. On the same count and under the same terms, as for `NCCC[C@H](N)C(=O)O` [L-Ornithine], the figure is 0%; as for `CC(C)COc1ccc(CNC(=O)N(Cc2ccc(F)cc2)C2CCN(C)CC2)cc1` [Pimavanserin], 1.16%; as for `CN(C)C(=O)COC(=O)Cc1ccc(OC(=O)c2ccc(NC(=N)N)cc2)cc1` [Camostat Mesilate], 42.9%.

`CN1CCC(=C2c3ccccc3CCc3cccnc32)CC1` [Azatadine dimaleate]: the inhibition at 100 µM is 0%. The same measure, in the same setting: as for `COc1ccccc1OCC(O)CO` (stereo not shown) [Guaifenesin], the figure is 33.3%. Still for that read-out and setting: the result for `C[C@@H](O)[C@H]1C(=O)N2C(C(=O)[O-])=C(SC3Cn4cnc[n+]4C3)[C@H](C)[C@H]12` (stereo partly shown) [Biapenem] reads 5.82%; that for `CCn1nc(C(=O)O)c(=O)c2cc3c(cc21)OCO3` [Cinoxacin], 0.626%. The same measure, in the same setting: the result for `C#C[C@]1(O)CC[C@H]2[C@@H]3CCc4cc(O)ccc4[C@H]3CC[C@@]21C` [Ethinyl Estradiol] reads 0%. Consider `Oc1ccc(Cl)cc1Cc1cc(Cl)ccc1O` [Dichlorophene], for which the inhibition at 100 µM amounted to 15%. With `Clc1ccc(C(Cn2ccnc2)OCc2ccc(Sc3ccccc3)cc2)c(Cl)c1` (stereo not shown) [Fenticonazole Nitrate], the inhibition at 100 µM stood at 0%.

`CCN(CC)C(=O)N1CCN(C)CC1` [Diethylcarbamazine citrate]: the inhibition at 100 µM amounted to 0%. Same read-out and setting: the result for `CCCCC1C(=O)N(c2ccccc2)N(c2ccccc2)C1=O` [Phenylbutazone] reads 0%.

`Cc1c(OCC(F)(F)F)ccnc1C[S+]([O-])c1nc2ccccc2[nH]1` (stereo not shown) [Lansoprazole]: the inhibition at 100 µM came to 4.45%. For `CC(=O)O[C@H]1C(=O)[C@@]2(C)[C@H]([C@H](OC(=O)c3ccccc3)[C@]3(O)C[C@H](OC(=O)[C@H](O)[C@@H](NC(=O)c4ccccc4)c4ccccc4)C(C)=C1C3(C)C)[C@]1(OC(C)=O)CO[C@@H]1C[C@@H]2O` [Paclitaxel], the inhibition at 100 µM was found to be 6.04%. For `O=C1CCC(N2C(=O)c3ccccc3C2=O)C(=O)N1` (stereo not shown) [Thalidomide], the inhibition at 100 µM is 14%. The same measure, in the same setting: the result for `COc1cc(O)c(C(=O)c2ccccc2)cc1S(=O)(=O)O` [Sulisobenzone] reads 4.13%; that for `CCn1c(=O)c2c(nc(/C=C/c3ccc(OC)c(OC)c3)n2C)n(CC)c1=O` [Istradefylline], 28.9%. Still for that read-out and setting: as for `FC(F)(F)C(Cl)Br` (stereo not shown) [Halothane], the figure is 0%. Take `CNC(=O)[C@H](Cc1ccccc1)NC(=O)[C@H](CC(C)C)[C@H](CSc1cccs1)C(=O)NO` [Batimastat (BB-94)]: the inhibition at 100 µM was 0%. Turning to `CCCCC(F)(F)[C@@]1(O)CC[C@H]2[C@@H](CC(=O)[C@@H]2CCCCCCC(=O)O)O1` [Lubiprostone], the inhibition at 100 µM is 13.8%. As to `COc1ccc2cc(CCC(C)=O)ccc2c1` [Nabumetone], the inhibition at 100 µM was found to be 0%. The same measure, in the same setting: the result for `CC(C)(C)NCC(O)COc1cccc2c1C[C@H](O)[C@H](O)C2` (mixture of isomers) [Nadolol] reads 21.5%; that for `COc1ncnc(NS(=O)(=O)c2ccc(N)cc2)c1OC` [Sulfadoxine], 0%; that for `O=c1[nH]c(=O)n([C@H]2C[C@H](O)[C@@H](CO)O2)cc1C(F)(F)F` [Trifluridine], 0%.

For the compound `COCCOC(=O)C1=C(C)NC(C)=C(C(=O)OC/C=C/c2ccccc2)C1c1cccc([N+](=O)[O-])c1` (stereo not shown) [Cilnidipine], the inhibition at 100 µM amounted to 0%.

On to `COc1c2occc2cc2ccc(=O)oc12` [Methoxsalen], for which the inhibition at 100 µM was 14.7%. Take `CCC(COC(=O)c1cc(OC)c(OC)c(OC)c1)(c1ccccc1)N(C)C` (stereo not shown) [Trimebutine maleate]: the inhibition at 100 µM was found to be 0%.

In the case of `Cc1cc(O)c(C(=O)N[C@@H](C(=O)N[C@@H]2C(=O)N3C(C(=O)O)=C(CSc4nnnn4C)CS[C@H]23)c2ccc(O)cc2)cn1` [Cefpiramide sodium], the inhibition at 100 µM was determined as 0%. Take `CCC(=O)OCC(=O)[C@@]1(OC(=O)CC)[C@@H](C)C[C@H]2[C@@H]3CCC4=CC(=O)C=C[C@]4(C)[C@@]3(Cl)[C@@H](O)C[C@@]21C` [Beclomethasone dipropionate]: the inhibition at 100 µM amounted to 0%. Same read-out and setting: the result for `NNc1nncc2ccccc12` [Hydralazine HCl] reads 6.58%. In the case of `CC(C)C[C@H](NC(=O)CNC(=O)c1cc(Cl)ccc1Cl)B1OC(=O)CC(CC(=O)O)(C(=O)O)O1` (stereo partly shown) [Ixazomib Citrate (MLN9708)], the inhibition at 100 µM worked out at 0%. Same read-out and setting: as for `O=C(O)c1ccc(-n2nc(-c3ccccc3O)nc2-c2ccccc2O)cc1` [Deferasirox], the figure is 16.8%.
